Data on twelve molecules can be found in PMC8303947, “Evaluation of Ruthenium(II) N-Heterocyclic Carbene Complexes as Antibacterial Agents and Inhibitors of Bacterial Thioredoxin Reductase” (Molecules, 2021).

For one experiment, the system named is A. baumannii DSM 30007. Kind of experiment: Antimicrobial microtiter plate MIC assay, A. baumannii. In kind it is cell-based, Acinetobacter baumannii. The conditions noted are these: Mueller Hinton broth, 16–18 h at 37 °C. The procedure:
(§1) The fungus Candida albicans was used as a non-bacterial reference organism. The broad-spectrum antibiotic Ciprofloxacin was used as a reference drug.
(§2) Compounds were tested in a microtiter plate assay according to CLSI guidelines against E. coli DSM 30083, A. baumannii DSM 30007, P. aeruginosa DSM 50071, B. subtilis DSM 402, S. aureus DSM 20231, S. aureus ATCC 43300 (MRSA), and C. albicans, as described previously. E. coli, A. baumannii, S. aureus, and B. subtilis were grown in Mueller Hinton broth, P. aeruginosa in cation-adjusted Mueller Hinton II, and C. albicans DSM1386 in Sabouraud broth. Compounds were dissolved in DMSO at 10 mg/mL. Starting from a 10 mg/mL stock solution, serial dilutions in culture media were prepared with the Tecan Freedom Evo 75 liquid handling workstation (Tecan, Männedorf, Switzerland), covering a range from 512 to 0.5 µg/mL. Assay volumes were 200 µL per well. After inoculating with 5 × 10^5 bacteria/mL from late exponential cultures grown in the same media, cultures were incubated for 16–18 h at 37 °C. The lowest compound concentration inhibiting visible bacterial growth was recorded as MIC.

A further experiment deals with B. subtilis 168. Kind of experiment: Antimicrobial microtiter plate MIC assay, B. subtilis. In kind it is cell-based, Bacillus subtilis. The conditions noted are these: Gram-positive, B. subtilis 168 (DSM 402), Mueller Hinton broth, 16–18 h at 37 °C. How it is done:
as §1, §2

A further experiment has as its system P. aeruginosa DSM 50071. Briefly: Antimicrobial microtiter plate MIC assay, P. aeruginosa. Format: cell-based, Pseudomonas aeruginosa. The conditions noted are these: cation-adjusted Mueller Hinton II, 16–18 h at 37 °C. How it is done:
as §1, §2

For a further experiment, the system named is S. aureus DSM 20231. Kind of experiment: Antimicrobial microtiter plate MIC assay, S. aureus DSM 20231. Format: cell-based, Staphylococcus aureus. The following applies: Mueller Hinton broth, 16–18 h at 37 °C. The procedure:
as §1, §2

The subject of the next experiment is E. coli DSM 30083. Kind of experiment: Antimicrobial microtiter plate MIC assay, E. coli. Format: cell-based, Escherichia coli. The conditions noted are these: Mueller Hinton broth, 16–18 h at 37 °C. The procedure: as §1, §2
The subject of experiment [1] is S. aureus ATCC 43300 (MRSA). Kind of experiment: Antimicrobial microtiter plate MIC assay, S. aureus ATCC 43300 (MRSA). Format: cell-based, Staphylococcus aureus. The conditions noted are these: Gram-positive, Mueller Hinton broth, 16–18 h at 37 °C. How it is done: as §1, §2
For the next experiment, the system named is C. albicans DSM 1386. Briefly: Antimicrobial microtiter plate MIC assay, C. albicans. Format: cell-based, Candida albicans. The following applies: Sabouraud broth. How it is done: as §1
E. coli, A. baumannii, S. aureus, and B. subtilis were grown in Mueller Hinton broth, P. aeruginosa in cation-adjusted Mueller Hinton II, and C. albicans DSM1386 in Sabouraud broth. Compounds were dissolved in DMSO at 10 mg/mL. […] Assay volumes were 200 µL per well. After inoculating with 5 × 10^5 bacteria/mL from late exponential cultures grown in the same media, cultures were incubated for 16–18 h at 37 °C. The lowest compound concentration inhibiting visible bacterial growth was recorded as MIC.

Another experiment concerns the target T1, E. coli TrxR (Escherichia coli, UniProt P0A9P4).
T1 construct: purchased Merck (Darmstadt, Germany)
Briefly: Inhibition of bacterial TrxR (E. coli), 5,5-dithiobis-(2-nitrobenzoic acid) reduction assay. Format: biochemical. How it is done: The inhibition of TrxR has been considered as a novel mode of action for antibiotics and in our previous report, the relevance for gold NHC complexes had been shown.
The TrxR (E. coli) inhibition assay was performed according to a previously published procedure. It is partly based on the procedure developed by Lu et al. and detects the formation of 5-TNB (5-thionitrobenzoic acid). Solutions of E. coli TrxR (35.4 U/mL) and of its substrate thioredoxin (Trx) E. coli (156 µg/mL) (both purchased from Merck (Darmstadt, Germany) and diluted with distilled water) and fresh stock solutions of the test compounds (in DMF) were prepared. TE buffer (Tris-HCl 50 mM, EDTA 1 mM, pH 7.5) containing graded concentrations of the respective compounds (20 µL) or buffer without compounds (20 µL, as control) were mixed with TrxR solution (10 µL), Trx solution (10 µL), and a solution of NADPH (200 µM) in TE buffer (100 µL) in a well on a 96-well plate. As blank solution, 200 µM NADPH in TE buffer (100 µL) mixed with a DMF/buffer mixture (40 µL) was used (final concentrations of DMF: 0.5% v/v). The solutions on the 96-well plates were incubated for 75 min at 25 °C with moderate shaking. […] The highest test compound concentration was used and the enzyme solution was replaced by TE buffer for this purpose.

Setting [2] is: purified E. coli TrxR, DTNB reduction, 75 min preincubation at 25 °C, mean (±SD) of three experiments, read-out: IC50 inhibition of E. coli TrxR.
Setting [3] is: Acinetobacter baumannii, DSM30007, Gram-negative.
[4] abbreviates: Pseudomonas aeruginosa, DSM50071, Gram-negative.
Where [5] appears, read: Staphylococcus aureus, DSM20231, Gram-positive.
The mark [6] stands for this setting: Escherichia coli, DSM30083, Gram-negative.
[7] abbreviates: Candida albicans, DSM1386, fungus.

Values after ≈ are worked out from the molar mass of the structure shown. Where two headings read alike, the source gives them in different places.

For orientation: MIC means the lowest concentration found to suppress growth. A lower MIC goes with a more susceptible organism. For orientation: IC50 means the concentration that gives 50% inhibition.

T1 sequence (P0A9P4 whole entry): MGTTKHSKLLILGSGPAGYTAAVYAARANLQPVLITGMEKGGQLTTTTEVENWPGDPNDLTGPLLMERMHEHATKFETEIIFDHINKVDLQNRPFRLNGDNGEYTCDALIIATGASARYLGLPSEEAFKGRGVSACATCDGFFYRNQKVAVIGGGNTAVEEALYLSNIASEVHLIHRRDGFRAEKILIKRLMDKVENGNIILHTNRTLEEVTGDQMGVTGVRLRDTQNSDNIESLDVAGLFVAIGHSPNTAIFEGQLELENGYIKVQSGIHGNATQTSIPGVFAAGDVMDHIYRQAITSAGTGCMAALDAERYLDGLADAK

Take “1,3-Dibenzyl-5-methoxy-1H-benzimidazolium bromide [2c]”: the MIC against A. baumannii DSM 30007 (Gram-negative) was determined as 1250.8 µM; against B. subtilis 168, 78.2 µM; against P. aeruginosa DSM 50071 (Gram-negative), 1250.8 µM; with S. aureus DSM 20231 (Gram-positive) it was 19.5 µM; against E. coli DSM 30083 (Gram-negative) it was 1250.8 µM; in experiment [1] it was 19.5 µM. In addition, the MIC in the experiment on C. albicans DSM 1386 (fungus) was determined as 1250.8 µM.
For `Cc1ccc(C(C)C)cc1.Clc1ccc2c(c1)n(Cc1ccccc1)[c](=[Ru]([Cl])[Cl])n2Cc1ccccc1` [3e, (1,3-Dibenzyl-5-chloro-1H-benzimidazol-2-ylidene)-dichlorido-(η^6-p-cymene)ruthenium(II)], the MIC was >802.4 µM against A. baumannii DSM 30007 (Gram-negative); 25.1 µM with B. subtilis 168; >802.4 µM in the experiment on P. aeruginosa DSM 50071 (Gram-negative); 25.1 µM in the experiment with S. aureus DSM 20231 (Gram-positive); 401.2 µM against E. coli DSM 30083 (Gram-negative); 12.5 µM in experiment [1]. Moreover, the MIC in the experiment on C. albicans DSM 1386 (fungus) is >802.4 µM.
For the molecule `Cc1ccc(C(C)C)cc1.Cc1ccc2c(c1)n(Cc1ccccc1)[c](=[Ru]([Cl])[Cl])n2Cc1ccccc1` [3b, (1,3-Dibenzyl-5-methyl-1H-benzimidazol-2-ylidene)-dichlorido-(η^6-p-cymene)ruthenium(II)], the MIC against A. baumannii DSM 30007 (Gram-negative) came to 413.8 µM; with B. subtilis 168, 25.9 µM; in the experiment with P. aeruginosa DSM 50071 (Gram-negative), 413.8 µM; with S. aureus DSM 20231 (Gram-positive), 25.9 µM; in the experiment with E. coli DSM 30083 (Gram-negative) it was 827.7 µM; in experiment [1] it was 25.9 µM. In addition, the MIC in the experiment with C. albicans DSM 1386 (fungus) is >827.7 µM. Besides, on E. coli TrxR (setting [2]), the IC50 was 14 µM.
In the case of `Brc1ccc2c(c1)n(Cc1ccccc1)c[n+]2Cc1ccccc1` [2f, 1,3-Dibenzyl-5-bromo-1H-benzimidazolium bromide], the MIC in the experiment with A. baumannii DSM 30007 (setting [3]) is > 1120 µM; against B. subtilis 168 (Bacillus subtilis, DSM402), 279 µM; with P. aeruginosa DSM 50071 (setting [4]), > 1120 µM; in the experiment on S. aureus DSM 20231 (setting [5]), 140 µM; in the experiment on E. coli DSM 30083 (setting [6]) it was > 1120 µM; in experiment [1] (Staphylococcus aureus) it was 69.8 µM. Further, in the experiment on C. albicans DSM 1386 (setting [7]), the MIC is > 1120 µM. At E. coli TrxR, the IC50 is > 100 µM.
In the case of `O=C(O)c1cn(C2CC2)c2cc(N3CCNCC3)c(F)cc2c1=O` [Ciprofloxacin, reference compound], the MIC against A. baumannii DSM 30007 (setting [3]) is 24 µM (≈ 7.95 µg/mL); with B. subtilis 168 (Bacillus subtilis, DSM402) it was 24 µM (≈ 7.95 µg/mL); with P. aeruginosa DSM 50071 (setting [4]), 1.2 µM (≈ 0.398 µg/mL); against S. aureus DSM 20231 (setting [5]), 12 µM (≈ 3.98 µg/mL); in the experiment on E. coli DSM 30083 (setting [6]), 1.5 µM (≈ 0.497 µg/mL); in experiment [1] (Staphylococcus aureus), 12 µM (≈ 3.98 µg/mL).
On to “1,3-Dibenzyl-5-fluoro-1H-benzimidazolium bromide [2d]”, for which the MIC in the experiment on A. baumannii DSM 30007 (Gram-negative) is reported as >1288.7 µM; in the experiment with B. subtilis 168, 322.2 µM; against P. aeruginosa DSM 50071 (Gram-negative) it was >1288.7 µM; in the experiment with S. aureus DSM 20231 (Gram-positive) it was 161.1 µM; against E. coli DSM 30083 (Gram-negative), 1288.7 µM; in experiment [1], 161.1 µM. Besides, the MIC in the experiment on C. albicans DSM 1386 (fungus) is reported as >1288.7 µM.
Regarding `c1ccc(Cn2c[n+](Cc3ccccc3)c3ccccc32)cc1` [2a], the MIC against A. baumannii DSM 30007 (setting [3]) was found to be 1350 µM; against B. subtilis 168 (Bacillus subtilis, DSM402), 169 µM; in the experiment on P. aeruginosa DSM 50071 (setting [4]), 1350 µM; in the experiment with S. aureus DSM 20231 (setting [5]), 42.2 µM; in the experiment on E. coli DSM 30083 (setting [6]), 1350 µM; in experiment [1] (Staphylococcus aureus), 42.2 µM. For the same molecule, in the experiment with C. albicans DSM 1386 (setting [7]), the MIC stood at 1350 µM. The IC50 at E. coli TrxR (setting [2]) is > 100 µM.
Turning to `COc1ccc2c(c1)n(Cc1ccccc1)[c](=[Ru]([Cl])[Cl])n2Cc1ccccc1.Cc1ccc(C(C)C)cc1` [3c, (1,3-Dibenzyl-5-methoxy-1H-benzimidazol-2-ylidene)-dichlorido-(η^6-p-cymene)ruthenium(II)], the MIC is >806.8 µM against A. baumannii DSM 30007 (Gram-negative); 25.2 µM against B. subtilis 168; >806.8 µM in the experiment with P. aeruginosa DSM 50071 (Gram-negative); 25.2 µM against S. aureus DSM 20231 (Gram-positive); >806.8 µM with E. coli DSM 30083 (Gram-negative); 25.2 µM in experiment [1]. The MIC against C. albicans DSM 1386 (fungus) was >806.8 µM.
Regarding `Cc1ccc(C(C)C)cc1.Fc1ccc2c(c1)n(Cc1ccccc1)[c](=[Ru]([Cl])[Cl])n2Cc1ccccc1` [3d, (1,3-Dibenzyl-5-fluoro-1H-benzimidazol-2-ylidene)-dichlorido-(η^6-p-cymene)ruthenium(II)], the MIC with A. baumannii DSM 30007 (Gram-negative) is recorded as 205.6 µM; against B. subtilis 168, 25.7 µM; in the experiment with P. aeruginosa DSM 50071 (Gram-negative), >822.4 µM; in the experiment on S. aureus DSM 20231 (Gram-positive) it was 25.7 µM; with E. coli DSM 30083 (Gram-negative), 822.4 µM; in experiment [1], 25.7 µM. Besides, the MIC with C. albicans DSM 1386 (fungus) was >822.4 µM.
On to `Cc1ccc(C(C)C)cc1.[Cl][Ru]([Cl])=[c]1n(Cc2ccccc2)c2ccc(Br)cc2n1Cc1ccccc1` [3f, (1,3-Dibenzyl-5-bromo-1H-benzimidazol-2-ylidene)-dichlorido-(η^6-p-cymene)ruthenium(II)], for which the MIC in the experiment with A. baumannii DSM 30007 (Gram-negative) is reported as >749.1 µM; against B. subtilis 168 it was 11.7 µM; against P. aeruginosa DSM 50071 (Gram-negative), >749.1 µM; against S. aureus DSM 20231 (Gram-positive), 23.4 µM; in the experiment with E. coli DSM 30083 (Gram-negative), 374.6 µM; in experiment [1], 11.7 µM. Also, in the experiment on C. albicans DSM 1386 (fungus), the MIC was >749.1 µM. Also, the IC50 on E. coli TrxR (setting [2]) was > 100 µM.
Regarding `Cc1ccc2c(c1)n(Cc1ccccc1)c[n+]2Cc1ccccc1` [2b, 1,3-Dibenzyl-5-methyl-1H-benzimidazolium bromide], the MIC in the experiment on A. baumannii DSM 30007 (setting [3]) is 1300 µM; against B. subtilis 168 (Bacillus subtilis, DSM402), 651 µM; against P. aeruginosa DSM 50071 (setting [4]), 1300 µM; in the experiment with S. aureus DSM 20231 (setting [5]), 81.4 µM; against E. coli DSM 30083 (setting [6]), 1300 µM; in experiment [1] (Staphylococcus aureus) it was 163 µM. In addition, in the experiment with C. albicans DSM 1386 (setting [7]), the MIC amounted to 1300 µM. For the same molecule, the IC50 at E. coli TrxR was > 100 µM.
Consider “1,3-Dibenzyl-5-chloro-1H-benzimidazolium bromide [2e]”, for which the MIC against A. baumannii DSM 30007 (Gram-negative) came to 1242.6 µM; in the experiment on B. subtilis 168, 155.3 µM; against P. aeruginosa DSM 50071 (Gram-negative), 1242.6 µM; in the experiment with S. aureus DSM 20231 (Gram-positive), 77.7 µM; against E. coli DSM 30083 (Gram-negative), 1242.6 µM; in experiment [1] it was 77.7 µM. In the experiment with C. albicans DSM 1386 (fungus), this molecule came in with an MIC of 1242.6 µM.
